The compounds below were run against CCR1 (Homo sapiens (Human), UniProt P32246) (assay: CCR1 Ligand Binding Scintillation Proximity Assay (SPA)). Conditions: [125I]-MIP-1α competition binding on THP-1 monocytic leukemia cells, 12 h at room temperature.
Method: CCR1 Ligand Binding Scintillation Proximity Assay (SPA)
For radioligand competition studies, a final concentration of 1×10^5 THP-1 monocytic leukemia cells are combined with 100 μg of LS WGA PS beads (Amersham, Cat.#: RPNQ 0260) in 40 μl of assay buffer (RPMI 1640 without phenol red, 50 mM HEPES, 5 mM MgCl2, 1 mM CaCl2, 0.1% BSA). The THP-1 cell/bead mixture is added to each well of a 384-well assay plate (PerkinElmer, Cat. #:6007899) containing test compound in 3-fold serial dilution, with final concentrations ranging from 8 μM to […]. A final concentration of 0.1 nM [^125I]-MIP-1α (PerkinElmer, Cat. # NEX298) in 20 μl assay buffer is added to the reaction. Sealed assay plates are incubated at room temperature for 12 h then analyzed by LEADseeker™.
The competition data of the test compound over a range of concentrations is plotted as percentage inhibition of radioligand specific bound in the absence of test compound (percent of total signal). After correcting for non-specific binding, IC50 values are determined. The IC50 value is defined as the concentration of test compound needed to reduce [^125I]-MIP-1α specific binding by 50% and is calculated using the four parameter logistic equation to fit the normalized data. The Ki values are determined by application of the Cheng-Prusoff equation to the IC50 values, where Ki=IC50/(1+ ligand concentration/Kd) The Kd of [^125I]-MIP-1α in THP-1 cells is 0.1 nM. Each experiment is run in duplicate.

CCR1, sequence (P32246 whole entry): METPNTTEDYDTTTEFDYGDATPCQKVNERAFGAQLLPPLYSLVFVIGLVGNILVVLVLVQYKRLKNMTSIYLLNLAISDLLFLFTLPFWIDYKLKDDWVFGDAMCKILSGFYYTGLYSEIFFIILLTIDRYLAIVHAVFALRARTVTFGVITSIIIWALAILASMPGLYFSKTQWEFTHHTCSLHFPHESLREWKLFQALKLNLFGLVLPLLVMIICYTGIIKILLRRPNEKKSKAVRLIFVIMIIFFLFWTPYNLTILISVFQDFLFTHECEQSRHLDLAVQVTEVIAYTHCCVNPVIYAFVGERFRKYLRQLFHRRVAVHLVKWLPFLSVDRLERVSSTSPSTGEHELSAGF

First: CC1(C)CN(C(=O)[C@H]2CCC[C@H]2NC(=O)Nc2ccccc2)CC[C@]1(O)c1ccc(Cl)cc1 [Example 9, 1-((1R,2S)-2-((S)-4-(4-Chlorophenyl)-4-hydroxy-3,3-dimethylpiperidine-1-carbonyl)cyclopentyl)-3-phenylurea]
Second: CC1(C)CN(C(=O)[C@H]2CCCC[C@H]2NC(=O)Nc2ccccc2)CC[C@]1(O)c1ccc(Cl)cc1 [Example 35]
The IC50 of the first is 1.6-fold lower: 0.0115 µM for the first, 0.0185 µM for the second. The first is the more potent here.

CC1(C)CN(C(=O)[C@H]2CCCC[C@H]2NC(=O)[C@H](O)c2ccccc2)CC[C@]1(O)c1ccc(Cl)cc1 [Example 67] and CC1(C)CN(C(=O)[C@H]2CCCC[C@H]2NC(=O)[C@@H](O)c2ccccc2)CC[C@]1(O)c1ccc(Cl)cc1 [Example 68] are within 1.5-fold of each other in IC50: 0.858 µM for the first, 0.581 µM for the second.

CC1(C)CN(C(=O)[C@H]2CCC[C@H]2NC(=O)c2cccc(C(N)=O)c2)CC[C@]1(O)c1ccc(Cl)cc1 [Example 89] and CC1(C)CN(C(=O)[C@H]2CCC[C@H]2NC(=O)c2cccc(C(=O)O)c2)CC[C@]1(O)c1ccc(Cl)cc1 [Example 85] are within 1.5-fold of each other in IC50: 0.0018 µM for the first, 0.0016 µM for the second.

Compared with CC1(C)CN(C(=O)[C@H]2CCCC[C@H]2NC(=O)c2cncnc2)CC[C@]1(O)c1ccc(Cl)cc1 [Example 57], CC1(C)CN(C(=O)[C@H]2CCCC[C@H]2NC(=O)c2ccccc2)CC[C@]1(O)c1ccc(Cl)cc1 [Example 2, N-((1R,2S)-2-((S)-4-(4-Chlorophenyl)-4-hydroxy-3,3-dimethylpiperidine-1-carbonyl)cyclohexyl)benzamide] is 8.9-fold lower in IC50: 0.0187 µM for the first, 0.0021 µM for the second. The second is the more potent here.

Going from CC(C)(C)OC(=O)N[C@@H]1CCC[C@@H]1C(=O)N1CC[C@](O)(c2ccc(Cl)cc2)C(C)(C)C1 [Example 7, tert-Butyl (1R,2S)-2-((S)-4-(4-chlorophenyl)-4-hydroxy-3,3-dimethylpiperidine-1-carbonyl)cyclopentylcarbamate] to COC(=O)N[C@@H]1CCCC[C@@H]1C(=O)N1CC[C@](O)(c2ccc(Cl)cc2)C(C)(C)C1 [Example 41], the IC50 rises from 0.0121 µM to 0.997 µM (82-fold). The first is the more potent here.

CC1(C)CN(C(=O)[C@H]2CCCC[C@H]2NC(=O)CCN2CCCCC2)CC[C@]1(O)c1ccc(Cl)cc1 [Example 58] and CC1(C)CN(C(=O)[C@H]2CCCC[C@H]2NC(=O)CO)CC[C@]1(O)c1ccc(Cl)cc1 [Example 61] are within 1.5-fold of each other in IC50: 0.932 µM for the first, 0.768 µM for the second.

First: C[C@H](NC(=O)N[C@@H]1CCCC[C@@H]1C(=O)N1CC[C@](O)(c2ccc(Cl)cc2)C(C)(C)C1)C(C)(C)O [Example 106]
Second: C[C@@H](O)CNC(=O)N[C@@H]1CCCC[C@@H]1C(=O)N1CC[C@](O)(c2ccc(Cl)cc2)C(C)(C)C1 [Example 76]
The IC50 of the first is 21-fold lower: 0.0007 µM for the first, 0.0146 µM for the second. The first is the more potent here.

Compared with CC1(C)CN(C(=O)[C@H]2CC3(CC[C@H]2NC(=O)c2ccccc2)OCCO3)CC[C@]1(O)c1ccc(Cl)cc1 [Example 10, N-((7S,8R)-7-((S)-4-(4-Chlorophenyl)-4-hydroxy-3,3-dimethylpiperidine-1-carbonyl)-1,4-dioxaspiro[4.5]decan-8-yl)benzamide], CC1(C)CN(C(=O)[C@H]2CC(=O)CC[C@H]2NC(=O)c2ccccc2)CC[C@]1(O)c1ccc(Cl)cc1 [Example 11, N-((1R,2S)-2-((S)-4-(4-Chlorophenyl)-4-hydroxy-3,3-dimethylpiperidine-1-carbonyl)-4-oxocyclohexyl)benzamide] is 62-fold lower in IC50: 1.06 µM for the first, 0.0172 µM for the second.

Going from CC1(C)CN(C(=O)[C@H]2CCCC[C@H]2NC(=O)CCc2ccccc2)CC[C@]1(O)c1ccc(Cl)cc1 [Example 60] to CC1(C)CN(C(=O)[C@H]2CCC[C@H]2NC(=O)C2CCCC2)CC[C@]1(O)c1ccc(Cl)cc1 [Example 86], the IC50 falls from 0.0157 µM to 0.0013 µM (12-fold).

Going from CC1(C)CN(C(=O)[C@H]2CCC[C@H]2NC(=O)[C@@H]2CC[C@H](O)C2)CC[C@]1(O)c1ccc(Cl)cc1 [Example 83] to CC1(C)CN(C(=O)[C@H]2CCC[C@H]2NC(=O)[C@H]2CC[C@@H](O)C2)CC[C@]1(O)c1ccc(Cl)cc1 [Example 84], the IC50 falls from 0.014 µM to 0.0015 µM (9.3-fold). The second is the more potent here.

Going from CC1(C)CN(C(=O)[C@H]2CCCC[C@@]2(C)NC(=O)c2ccccc2)CC[C@]1(O)c1ccc(Cl)cc1 [Example 104] to CC1(C)CN(C(=O)[C@H]2CCC[C@H]2NC(=O)c2cccc(S(N)(=O)=O)c2)CC[C@]1(O)c1ccc(Cl)cc1 [Example 80], the IC50 falls from 0.818 µM to 0.001 µM (820-fold). The second is the more potent here.

Work on CC1(C)CN(C(=O)[C@H]2CCCC[C@H]2NC(=O)c2cccc(C(=O)O)c2)CC[C@]1(O)c1ccc(C#N)cc1 [Example 100, 3-((1R,2S)-2-((S)-4-(4-Cyanophenyl)-4-hydroxy-3,3-dimethylpiperidine-1-carbonyl)cyclohexylcarbamoyl)benzoic acid] yielded an IC50 of 0.0113 µM.

Reference: patent publication US8536198B2, “Piperidine derivatives as modulators of chemokine receptor activity” (Bristol-Myers Squibb Company, priority 2007, dated 2013)
